Paper PMC12445474, “Conservation of heat stress acclimation by the IPK2-type kinases that control the synthesis of the inositol pyrophosphate 4/6-InsP7 in land plants” (PLOS Genetics, 2025)
Values belong to the molecule of their own block, whether it stands above or below them.

How the values were obtained:
AtIPK2α = target: T1, AtIPK2α (Arabidopsis thaliana, UniProt Q9LY23); experiment: isothermal titration calorimetry; type: binding
T1 construct: gene IPK2a; full-length CDS in pET28b, N-terminal His8-MBP-TEV, E. coli BL21 (RIL); tag removed by TEV for ITC, His8-MBP fusion for kinase assays
T1 sequence (Q9LY23 1-286): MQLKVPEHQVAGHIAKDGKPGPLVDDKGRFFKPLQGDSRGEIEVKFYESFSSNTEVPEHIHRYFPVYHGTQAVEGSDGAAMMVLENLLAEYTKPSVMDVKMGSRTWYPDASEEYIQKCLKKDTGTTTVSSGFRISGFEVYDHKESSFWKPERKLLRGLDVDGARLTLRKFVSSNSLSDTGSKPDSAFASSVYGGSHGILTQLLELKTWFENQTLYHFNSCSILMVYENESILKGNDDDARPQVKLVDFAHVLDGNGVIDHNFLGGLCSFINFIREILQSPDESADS

AtIPK2β [1] = target: T2, AtIPK2β (Arabidopsis thaliana, UniProt Q9FLT2); experiment: isothermal titration calorimetry; type: binding
T2 construct: gene IPK2b; full-length CDS in pET28b, N-terminal His8-MBP-TEV, E. coli BL21 (RIL); tag removed by TEV for ITC, His8-MBP fusion for kinase assays
T2 sequence (Q9FLT2 1-300): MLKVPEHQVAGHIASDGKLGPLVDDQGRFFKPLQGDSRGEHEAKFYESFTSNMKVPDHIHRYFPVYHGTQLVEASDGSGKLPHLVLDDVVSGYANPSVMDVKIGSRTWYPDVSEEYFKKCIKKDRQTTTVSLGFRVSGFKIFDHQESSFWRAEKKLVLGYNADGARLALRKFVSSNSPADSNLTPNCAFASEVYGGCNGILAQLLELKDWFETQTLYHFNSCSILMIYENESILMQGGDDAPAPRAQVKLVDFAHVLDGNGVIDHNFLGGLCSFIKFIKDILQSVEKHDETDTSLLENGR

MpIPMK [2] = target: T3, MpIPMK (Marchantia polymorpha, UniProt A0A2R6WAL0); experiment: in vitro kinase assay, PAGE and CE-MS of products; type: biochemical; conditions: 12.5 mM ATP, 10 nmol InsP6, 5 mM MgCl2, 20 mM HEPES pH 7.5, 1 mM DTT, 37 °C, 12 h
T3 construct: gene MARPO_0118s0021; full-length CDS in pET28b, N-terminal His8-MBP fusion, E. coli, Ni-NTA purified in PBS; tag kept

AtHSFA1b [3] = target: T4, AtHSFA1b (Arabidopsis thaliana, UniProt O81821 1-481); experiment: EMSA; 50-200 nM protein, 250 nM probe; EMSA: 250 nM FAM probe, 15 min on ice (30 min pre-incubation with partner or InsP), 6% native PAGE; binding buffer not stated (proteins purified in PBS pH 7.4); conditions: protein: recombinant; tags: N-terminal His8-MBP; chain copies: 3; label: 5' FAM on strand 1; 5' overhang 4 nt at both ends, 18 bp duplex
AtHSFA1b [4] = target: T4, AtHSFA1b; experiment: EMSA; 25-200 nM protein, 250 nM probe; EMSA: 250 nM FAM probe, 15 min on ice (30 min pre-incubation with partner or InsP), 6% native PAGE; binding buffer not stated (proteins purified in PBS pH 7.4); conditions: protein: recombinant; tags: N-terminal His8-MBP; chain copies: 3; label: 5' FAM on strand 1; 5' overhang 4 nt at both ends, 26 bp duplex
MpIPMK [5] = target: T5, MpIPMK (Marchantia polymorpha (Tak-1), UniProt A0A2R6WAL0 1-319); experiment: EMSA; 50-200 nM protein, 250 nM probe; EMSA: 250 nM FAM probe, 15 min on ice (30 min pre-incubation with partner or InsP), 6% native PAGE; binding buffer not stated (proteins purified in PBS pH 7.4); conditions: protein: recombinant; tags: N-terminal His8-MBP; label: 5' FAM on strand 1; 5' overhang 4 nt at both ends, 26 bp duplex
T5 sequence: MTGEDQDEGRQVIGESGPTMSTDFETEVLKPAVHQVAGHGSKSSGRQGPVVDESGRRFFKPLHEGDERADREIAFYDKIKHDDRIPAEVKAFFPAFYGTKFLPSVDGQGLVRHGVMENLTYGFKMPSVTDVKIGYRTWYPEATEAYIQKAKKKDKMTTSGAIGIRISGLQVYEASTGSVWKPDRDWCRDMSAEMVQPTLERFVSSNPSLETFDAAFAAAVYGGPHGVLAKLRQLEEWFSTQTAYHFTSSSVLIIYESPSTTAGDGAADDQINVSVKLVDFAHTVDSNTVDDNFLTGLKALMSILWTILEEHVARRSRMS

AtIPK2β [6] = target: T6, AtIPK2β (Arabidopsis thaliana (Col-0), UniProt Q9FLT2 1-300); experiment: as above; conditions: protein: recombinant; tags: N-terminal His8-MBP-TEV; label: 5' FAM on strand 1; 5' overhang 4 nt at both ends, 26 bp duplex
T6 sequence: T2 sequence (Q9FLT2 1-300)

T4 sequence (O81821 whole entry): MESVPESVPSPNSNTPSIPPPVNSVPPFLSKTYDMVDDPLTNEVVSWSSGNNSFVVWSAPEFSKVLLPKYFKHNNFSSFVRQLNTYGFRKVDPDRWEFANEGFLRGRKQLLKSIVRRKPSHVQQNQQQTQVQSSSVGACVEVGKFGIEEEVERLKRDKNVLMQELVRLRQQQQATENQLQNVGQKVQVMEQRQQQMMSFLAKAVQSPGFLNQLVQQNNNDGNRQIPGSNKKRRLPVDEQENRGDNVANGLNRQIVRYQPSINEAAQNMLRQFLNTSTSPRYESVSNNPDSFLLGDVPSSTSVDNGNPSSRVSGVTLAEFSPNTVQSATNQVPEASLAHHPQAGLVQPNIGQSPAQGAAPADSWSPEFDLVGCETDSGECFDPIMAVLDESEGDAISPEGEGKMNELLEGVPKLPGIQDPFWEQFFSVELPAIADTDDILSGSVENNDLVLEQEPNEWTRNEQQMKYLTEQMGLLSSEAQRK

Kd (AtIPK2α): ~7 µM | Kd (AtIPK2β [1]): ~6 µM
Molecule: O=P(O)(O)O[C@@H]1[C@H](O)[C@H](O)[C@@H](OP(=O)(O)O)[C@H](OP(=O)(O)O)[C@H]1O [Ins(1,4,5)P3]

Kd (AtIPK2α): ~2 µM | Kd (AtIPK2β [1]): ~0.5 µM
Molecule: O=P(O)(O)O[C@H]1[C@H](OP(=O)(O)O)[C@@H](OP(=O)(O)O)[C@H](OP(=O)(O)O)[C@@H](OP(=O)(O)O)[C@H]1OP(=O)(O)O [InsP6]
kinase activity (MpIPMK [2]): demonstrating that MpIPMK phosphorylates InsP6 in vitro

The remaining lines, values behind:

B1: HSE∆ (dsDNA)
DNA 1: CTCGGTCGATCGATGCATGATG
DNA 2: AAACCATCATGCATCGATCGAC
binding result (AtHSFA1b [3]): no binding

B2: FAM-HSE (AtHSP18.1 promoter element) (dsDNA)
DNA 1: CTCGGTCGATCGAGAAGCTTCTGCATGATG
DNA 2: AAACCATCATGCAGAAGCTTCTCGATCGAC
binding result (AtHSFA1b [4]): binds | binding result (MpIPMK [5]): no binding | binding result (AtIPK2β [6]): no binding
